Measured values taken from the supplement of paper PMC10307832.

Assays:
Assay in all cases: relative viability (nuclei count vs DMSO), 5 days (fraction); higher = more cells survive
Tosedostat + OSI-027 = compound: CC(C)C[C@@H](C(=O)N[C@H](C(=O)OC1CCCC1)c1ccccc1)[C@H](O)C(=O)NO [Tosedostat] + COc1cccc2cc(-c3nc([C@H]4CC[C@H](C(=O)O)CC4)n4ncnc(N)c34)[nH]c12 [OSI-027] (partner 0.5 µM)
Method in brief: (§1)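 Dosing by pin tool came one day after lung cancer cell lines were seeded in 1536-well plates, using either one drug or a fixed anchor-drug dose plus five library-drug doses (not always all listed) in √10 steps. After 5 days, nuclei were counted on 4× images. Relative viability is treated-well nuclei count divided by vehicle-well nuclei count, and values are medians of duplicate plates.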

Tosedostat + Linsitinib = compound: CC(C)C[C@@H](C(=O)N[C@H](C(=O)OC1CCCC1)c1ccccc1)[C@H](O)C(=O)NO [Tosedostat] + C[C@]1(O)C[C@@H](c2nc(-c3ccc4ccc(-c5ccccc5)nc4c3)c3c(N)nccn32)C1 [Linsitinib] (partner 1 µM)
Method in brief: as §1

Tosedostat + Phenformin = compound: CC(C)C[C@@H](C(=O)N[C@H](C(=O)OC1CCCC1)c1ccccc1)[C@H](O)C(=O)NO [Tosedostat] + N=C(N)NC(=N)NCCc1ccccc1 [Phenformin] (partner 250 µM)
Method in brief: as §1

[1] = compound: CC1=NN=C(O1)C2=NN=C(C=C2)N3CCC(CC3)OC4=C(C=CC(=C4)F)Cl + CCNC(=O)c1noc(-c2cc(C(C)C)c(O)cc2O)c1-c1ccc(CN2CCOCC2)cc1 [Luminespib] (partner 0.01 µM)
Method in brief: as §1

Cell Line: HCC-44
- relative viability (Tosedostat + OSI-027; first compound 0.02 µM): 0.538
- relative viability (Tosedostat + OSI-027; first compound 0.06325 µM): 0.592
- relative viability (Tosedostat + OSI-027; first compound 0.2 µM): 0.384
- relative viability (Tosedostat + OSI-027; first compound 0.6325 µM): 0.513
- relative viability (Tosedostat + OSI-027; first compound 2 µM): 0.374
- relative viability (Tosedostat + Linsitinib; first compound 0.02 µM): 0.59
- relative viability (Tosedostat + Linsitinib; first compound 0.06325 µM): 0.656
- relative viability (Tosedostat + Linsitinib; first compound 0.2 µM): 0.688
- relative viability (Tosedostat + Linsitinib; first compound 0.6325 µM): 0.681
- relative viability (Tosedostat + Linsitinib; first compound 2 µM): 0.473
- relative viability (Tosedostat + Phenformin; first compound 0.02 µM): 0.19
- relative viability (Tosedostat + Phenformin; first compound 0.06325 µM): 0.221
- relative viability (Tosedostat + Phenformin; first compound 0.2 µM): 0.183
- relative viability (Tosedostat + Phenformin; first compound 0.6325 µM): 0.111
- relative viability (Tosedostat + Phenformin; first compound 2 µM): 0.117
- relative viability ([1]; first compound 0.253 µM): 0.739
- relative viability ([1]; first compound 0.8 µM): 0.812
- relative viability ([1]; first compound 2.53 µM): 0.725
- relative viability ([1]; first compound 8 µM): 0.731

Cell Line: HCC-827
- relative viability (Tosedostat + OSI-027; first compound 0.02 µM): 0.701
- relative viability (Tosedostat + OSI-027; first compound 0.06325 µM): 0.728
- relative viability (Tosedostat + OSI-027; first compound 0.2 µM): 0.773
- relative viability (Tosedostat + OSI-027; first compound 0.6325 µM): 0.526
- relative viability (Tosedostat + OSI-027; first compound 2 µM): 0.644
- relative viability (Tosedostat + Linsitinib; first compound 0.02 µM): 0.966
- relative viability (Tosedostat + Linsitinib; first compound 0.06325 µM): 0.934
- relative viability (Tosedostat + Linsitinib; first compound 0.2 µM): 0.976
- relative viability (Tosedostat + Linsitinib; first compound 0.6325 µM): 0.857
- relative viability (Tosedostat + Linsitinib; first compound 2 µM): 0.909
- relative viability (Tosedostat + Phenformin; first compound 0.02 µM): 0.401
- relative viability (Tosedostat + Phenformin; first compound 0.06325 µM): 0.443
- relative viability (Tosedostat + Phenformin; first compound 0.2 µM): 0.397
- relative viability (Tosedostat + Phenformin; first compound 0.6325 µM): 0.355
- relative viability (Tosedostat + Phenformin; first compound 2 µM): 0.301
- relative viability ([1]; first compound 0.253 µM): 0.428
- relative viability ([1]; first compound 0.8 µM): 0.228
- relative viability ([1]; first compound 2.53 µM): 0.349
- relative viability ([1]; first compound 8 µM): 0.339

Cell Line: NCI-H1623
- relative viability (Tosedostat + OSI-027; first compound 0.02 µM): 0.433
- relative viability (Tosedostat + OSI-027; first compound 0.06325 µM): 0.429
- relative viability (Tosedostat + OSI-027; first compound 0.2 µM): 0.456
- relative viability (Tosedostat + OSI-027; first compound 0.6325 µM): 0.462
- relative viability (Tosedostat + OSI-027; first compound 2 µM): 0.453
- relative viability (Tosedostat + Phenformin; first compound 0.02 µM): 0.558
- relative viability (Tosedostat + Phenformin; first compound 0.06325 µM): 0.609
- relative viability (Tosedostat + Phenformin; first compound 0.2 µM): 0.622
- relative viability (Tosedostat + Phenformin; first compound 0.6325 µM): 0.519
- relative viability (Tosedostat + Phenformin; first compound 2 µM): 0.618
- relative viability ([1]; first compound 0.253 µM): 0.465
- relative viability ([1]; first compound 0.8 µM): 0.52
- relative viability ([1]; first compound 2.53 µM): 0.486
- relative viability ([1]; first compound 8 µM): 0.433

Cell Line: NCI-H441
- relative viability (Tosedostat + OSI-027; first compound 0.02 µM): 0.609
- relative viability (Tosedostat + OSI-027; first compound 0.06325 µM): 0.593
- relative viability (Tosedostat + OSI-027; first compound 0.2 µM): 0.632
- relative viability (Tosedostat + OSI-027; first compound 0.6325 µM): 0.433
- relative viability (Tosedostat + OSI-027; first compound 2 µM): 0.437
- relative viability (Tosedostat + Linsitinib; first compound 0.02 µM): 0.487
- relative viability (Tosedostat + Linsitinib; first compound 0.06325 µM): 0.544
- relative viability (Tosedostat + Linsitinib; first compound 0.2 µM): 0.473
- relative viability (Tosedostat + Linsitinib; first compound 0.6325 µM): 0.402
- relative viability (Tosedostat + Linsitinib; first compound 2 µM): 0.403
- relative viability (Tosedostat + Phenformin; first compound 0.02 µM): 0.861
- relative viability (Tosedostat + Phenformin; first compound 0.06325 µM): 0.833
- relative viability (Tosedostat + Phenformin; first compound 0.2 µM): 0.569
- relative viability (Tosedostat + Phenformin; first compound 0.6325 µM): 0.61
- relative viability (Tosedostat + Phenformin; first compound 2 µM): 0.713
- relative viability ([1]; first compound 0.253 µM): 0.295
- relative viability ([1]; first compound 0.8 µM): 0.32
- relative viability ([1]; first compound 2.53 µM): 0.245
- relative viability ([1]; first compound 8 µM): 0.282

Cell Line: NCI-H1734
- relative viability (Tosedostat + OSI-027; first compound 0.02 µM): 0.593
- relative viability (Tosedostat + OSI-027; first compound 0.06325 µM): 0.669
- relative viability (Tosedostat + OSI-027; first compound 0.2 µM): 0.64
- relative viability (Tosedostat + OSI-027; first compound 0.6325 µM): 0.571
- relative viability (Tosedostat + OSI-027; first compound 2 µM): 0.564
- relative viability (Tosedostat + Linsitinib; first compound 0.02 µM): 0.902
- relative viability (Tosedostat + Linsitinib; first compound 0.06325 µM): 0.989
- relative viability (Tosedostat + Linsitinib; first compound 0.2 µM): 0.867
- relative viability (Tosedostat + Linsitinib; first compound 0.6325 µM): 0.913
- relative viability (Tosedostat + Linsitinib; first compound 2 µM): 0.827
- relative viability (Tosedostat + Phenformin; first compound 0.02 µM): 0.453
- relative viability (Tosedostat + Phenformin; first compound 0.06325 µM): 0.399
- relative viability (Tosedostat + Phenformin; first compound 0.2 µM): 0.393
- relative viability (Tosedostat + Phenformin; first compound 0.6325 µM): 0.372
- relative viability (Tosedostat + Phenformin; first compound 2 µM): 0.345
- relative viability ([1]; first compound 0.253 µM): 0.237
- relative viability ([1]; first compound 0.8 µM): 0.206
- relative viability ([1]; first compound 2.53 µM): 0.249
- relative viability ([1]; first compound 8 µM): 0.189

Cell Line: HARA
- relative viability (Tosedostat + OSI-027; first compound 0.02 µM): 0.695
- relative viability (Tosedostat + OSI-027; first compound 0.06325 µM): 0.492
- relative viability (Tosedostat + OSI-027; first compound 0.2 µM): 0.421
- relative viability (Tosedostat + OSI-027; first compound 0.6325 µM): 0.447
- relative viability (Tosedostat + OSI-027; first compound 2 µM): 0.382
- relative viability (Tosedostat + Linsitinib; first compound 0.02 µM): 0.915
- relative viability (Tosedostat + Linsitinib; first compound 0.06325 µM): 0.8
- relative viability (Tosedostat + Linsitinib; first compound 0.2 µM): 0.876
- relative viability (Tosedostat + Linsitinib; first compound 0.6325 µM): 0.969
- relative viability (Tosedostat + Linsitinib; first compound 2 µM): 0.857
- relative viability (Tosedostat + Phenformin; first compound 0.02 µM): 0.505
- relative viability (Tosedostat + Phenformin; first compound 0.06325 µM): 0.383
- relative viability (Tosedostat + Phenformin; first compound 0.2 µM): 0.433
- relative viability (Tosedostat + Phenformin; first compound 0.6325 µM): 0.326
- relative viability (Tosedostat + Phenformin; first compound 2 µM): 0.35
- relative viability ([1]; first compound 0.253 µM): 0.234
- relative viability ([1]; first compound 0.8 µM): 0.204
- relative viability ([1]; first compound 2.53 µM): 0.202
- relative viability ([1]; first compound 8 µM): 0.184

Cell Line: NCI-H1703
- relative viability (Tosedostat + Linsitinib; first compound 0.02 µM): 0.56
- relative viability (Tosedostat + Linsitinib; first compound 0.06325 µM): 0.628
- relative viability (Tosedostat + Linsitinib; first compound 0.2 µM): 0.553
- relative viability (Tosedostat + Linsitinib; first compound 0.6325 µM): 0.556
- relative viability (Tosedostat + Linsitinib; first compound 2 µM): 0.473

Cell Line: NCI-H1395
- relative viability (Tosedostat + OSI-027; first compound 0.02 µM): 0.59
- relative viability (Tosedostat + OSI-027; first compound 0.06325 µM): 0.618
- relative viability (Tosedostat + OSI-027; first compound 0.2 µM): 0.644
- relative viability (Tosedostat + OSI-027; first compound 0.6325 µM): 0.672
- relative viability (Tosedostat + OSI-027; first compound 2 µM): 0.621
- relative viability (Tosedostat + Linsitinib; first compound 0.02 µM): 0.993
- relative viability (Tosedostat + Linsitinib; first compound 0.06325 µM): 0.944
- relative viability (Tosedostat + Linsitinib; first compound 0.2 µM): 1.03
- relative viability (Tosedostat + Linsitinib; first compound 0.6325 µM): 0.821
- relative viability (Tosedostat + Linsitinib; first compound 2 µM): 0.782
- relative viability (Tosedostat + Phenformin; first compound 0.02 µM): 0.418
- relative viability (Tosedostat + Phenformin; first compound 0.06325 µM): 0.424
- relative viability (Tosedostat + Phenformin; first compound 0.2 µM): 0.419
- relative viability (Tosedostat + Phenformin; first compound 0.6325 µM): 0.41
- relative viability (Tosedostat + Phenformin; first compound 2 µM): 0.446
- relative viability ([1]; first compound 0.253 µM): 0.431
- relative viability ([1]; first compound 0.8 µM): 0.725
- relative viability ([1]; first compound 2.53 µM): 0.678
- relative viability ([1]; first compound 8 µM): 0.82

Cell Line: NCI-H1355
- relative viability (Tosedostat + OSI-027; first compound 0.02 µM): 0.377
- relative viability (Tosedostat + OSI-027; first compound 0.06325 µM): 0.399
- relative viability (Tosedostat + OSI-027; first compound 0.2 µM): 0.442
- relative viability (Tosedostat + OSI-027; first compound 0.6325 µM): 0.413
- relative viability (Tosedostat + OSI-027; first compound 2 µM): 0.351
- relative viability (Tosedostat + Linsitinib; first compound 0.02 µM): 0.717
- relative viability (Tosedostat + Linsitinib; first compound 0.06325 µM): 0.839
- relative viability (Tosedostat + Linsitinib; first compound 0.2 µM): 0.762
- relative viability (Tosedostat + Linsitinib; first compound 0.6325 µM): 0.701
- relative viability (Tosedostat + Linsitinib; first compound 2 µM): 0.726
- relative viability (Tosedostat + Phenformin; first compound 0.02 µM): 0.43
- relative viability (Tosedostat + Phenformin; first compound 0.06325 µM): 0.445
- relative viability (Tosedostat + Phenformin; first compound 0.2 µM): 0.457
- relative viability (Tosedostat + Phenformin; first compound 0.6325 µM): 0.38
- relative viability (Tosedostat + Phenformin; first compound 2 µM): 0.377
- relative viability ([1]; first compound 0.253 µM): 0.538
- relative viability ([1]; first compound 0.8 µM): 0.582
- relative viability ([1]; first compound 2.53 µM): 0.601
- relative viability ([1]; first compound 8 µM): 0.623
